Laboratory results reported in ChEMBL document CHEMBL1151654, “Antineoplastic and piscicidal 1-alkyldaphnane orthoesters from Pimelea species” (J Nat Prod, 1985).

Legend:
Gambusia affinis = assay: Toxicity against Gambusia affinis at 30 to 60 ug/L within 24 hrs; type: organism-based; details: in vivo
P388 [1] = assay: In vivo antitumor activity against mouse P388 cells at 100 ug/kg relative to control; type: functional
P388 [2] = assay: In vivo antitumor activity against mouse P388 cells at 300 ug/kg relative to control; type: functional

Compound	Activity (Gambusia affinis)	T/C (P388 [1])	T/C (P388 [2])
C=C(C)[C@@]12C[C@@H](COC(=O)c3ccccc3)[C@@]34OC5(O[C@@H]1[C@@H]3[C@@H]1O[C@]1(CO)[C@@H](O)[C@@]1(O)[C@H]4[C@H]([C@H](C)[C@@H]1OC(=O)c1ccccc1)[C@H](C)CCCCCC[C@H]5O)O2 [GNIDIMACRIN]	Toxic		
C=C(C)[C@@]12C[C@@H](C)[C@@]34OC5(O[C@@H]1[C@@H]3[C@@H]1O[C@]1(CO)[C@@H](O)[C@@]1(O)[C@H]4[C@H]([C@H](C)[C@@H]1OC(=O)c1ccccc1)[C@H](C)CCCCCC[C@H]5O)O2 [KRAUSSIANIN]	Toxic		
C=C1C(=O)O[C@H]2C[C@@H](C)[C@@H]3C=CC(=O)[C@@]3(C)[C@H](OC(C)=O)[C@H]12 [LINIFOLIN A]	Toxic	107%	
C=C(C)[C@@]12C[C@@H](C)[C@@]34OC5(O[C@@H]1[C@@H]3[C@@H]1O[C@]1(CO)[C@@H](O)[C@@]1(O)[C@H]4[C@H]([C@H](C)[C@@H]1OC(=O)c1ccccc1)[C@@H](C)CCCCCC[C@H]5O)O2 [LINIMACRIN C]	Toxic		
C=C(C)[C@]12OC34CCCCCCC[C@@H](C)[C@H]5[C@H](C)[C@H](OC(=O)c6ccccc6)[C@@]6(O)[C@H](O)[C@@]7(CO)O[C@H]7[C@@H]([C@H]1O3)[C@](O4)([C@H](C)[C@H]2OC(C)=O)[C@H]56 [LINIMACRIN D]	Toxic		132%
C=C(C)[C@]12C[C@@H](C)[C@@]34OC5(CCCCCCC[C@H](C)[C@H]6[C@H](C)[C@H](OC(=O)c7ccccc7)[C@@](O)([C@H](O)[C@@]7(CO)O[C@H]7[C@H]3[C@H]1O5)[C@@H]64)O2 [PIMELEA FACTOR P2]	Toxic		
C=C(C)[C@@]12C[C@@H](C)[C@@]34OC5(CCCCCCC[C@@H](C)[C@H]6[C@H](C)[C@H](OC(=O)c7ccccc7)[C@@](O)([C@H](O)[C@@]7(CO)O[C@H]7[C@H]3[C@H]1O5)[C@@H]64)O2 [PIMELEA FACTOR P3]	Toxic		164%
C=C(C)[C@@]12C[C@@H](COC(=O)c3ccccc3)[C@@]34OC5(O[C@@H]1[C@@H]3[C@@H]1O[C@]1(CO)[C@@H](O)[C@@]1(O)[C@H]4[C@H]([C@H](C)[C@@H]1OC(=O)c1ccc(OC(C)=O)cc1)[C@H](C)CCCCCC[C@H]5O)O2 [SIMPLEXIMACRIN]	Toxic		
